Results published in US20230372227A1, “PRESERVATIVE COMPRISING POLYLYSINE AND CAPRYLYL GLYCERYL ETHER FOR EXTERNAL-USE SKIN FORMULATIONS AND COSMETICS COMPOSITION COMPRISING SAME” (ACTIVON CO., LTD., priority 2020, published 2023).

Columns and labels:
Assay in all cases: Minimum inhibitory concentration (MIC) of preservatives
Assay type in all cases: cell-based
[1] = test system: Aspergillus brasiliensis (ATCC 16404); conditions: Experimental Example 1; growth inhibited by about 95% or more; about 10^6 CFU/ml; about 25° C., 24 to 48 hours
Protocol: (§1) In this experimental example, in order to evaluate the antimicrobial effect of the preservatives for skin external preparations, prepared in Examples 1 to 5, the minimum inhibitory concentrations (MICs) of the preservative of each Example against bacteria or fungi, including Escherichia coli (ATCC 8739), Pseudomonas aeruginosa (ATCC 9027), Staphylococcus aureus (ATCC 6538), Candida albicans (ATCC 10231), and Aspergillus brasiliensis (ATCC 16404), were measured.
(§2) Specifically, each of the preservatives for skin external preparations, prepared in Examples 1 to 5, was diluted to about 13% to about 25%, and each of the dilutions was further serially diluted 1:1 (10 times). Thereby, samples of various concentrations (about 0.05% to about 10%) for each of the preservatives for skin external preparations, prepared in Examples 1 to 5, were prepared. Each of the obtained samples was added to tryptic soy broth (TSB) medium or potato dextrose agar (PDA) medium. In about 10 ml of the medium to which each sample was added, each type of bacteria or fungi described above was seeded so that the final concentration of the bacteria or fungi was about 10^6 CFU/ml, and then the bacteria were cultured at about 32° C. for about 24 hours to 48 hours, and fungi were cultured at about 25° C. for about 24 hours to 48 hours. Thereafter, the minimum inhibitory concentration (MIC) of each sample capable of inhibiting the growth of the bacteria or fungi by about 95% or more was determined by observing the state of the bacterial or fungal culture medium. The growth of normal bacteria in a medium to which no sample was added was measured and used as a positive control, and the MIC for the growth of bacteria or fungi in a medium to which polyepsilon-lysine, caprylyl glyceryl ether, or propylene glycol was added alone was measured and used as a control.
(§3) In this experimental example, in order to evaluate the antimicrobial effect of a preservative for a skin external application comprising polylysine, caprylyl glyceryl ether and a glycol compound at a weight ratio of 0.1 to 5:10 to 30:65 to 75, the minimum inhibitory concentrations (MICs) of the preservative of each Example against bacteria or fungi, including Escherichia coli (ATCC 8739), Pseudomonas aeruginosa (ATCC 9027), Staphylococcus aureus (ATCC 6538), Candida albicans (ATCC 10231), and Aspergillus brasiliensis (ATCC 16404), were measured. Polyepsilon-lysine was used as the polylysine, and propylene glycol, butylene glycol, or pentylene glycol was used as the glycol compound.
(§4) Each of the preservatives for skin external preparations was diluted to about 10%, and each of the dilutions was further serially diluted 1:1 ([…]). Thereby, samples of various concentrations (about 0.01% to about 10%) for each of the preservatives for skin external preparations were prepared. Each of the obtained samples was added to tryptic soy broth (TSB) medium or potato dextrose agar (PDA) medium. In about 10 ml of the medium to which each sample was added, each type of bacteria or fungi described above was seeded so that the final concentration of the bacteria or fungi was about 10^6 CFU/ml, and then the bacteria were cultured at about 32° C. for about 24 hours to 48 hours, and fungi were cultured at about 25° C. for about 24 hours to 48 hours. […] The growth of normal bacteria in a medium to which no sample was added was measured and used as a positive control.

[2] = test system: Candida albicans (ATCC 10231); conditions: Experimental Example 1; growth inhibited by about 95% or more; about 10^6 CFU/ml; about 25° C., 24 to 48 hours
Protocol: as §1, §2, §3, §4

[3] = test system: Escherichia coli (ATCC 8739); conditions: Experimental Example 1; growth inhibited by about 95% or more; about 10^6 CFU/ml; about 32° C., 24 to 48 hours
Protocol: as §1, §2, §3, §4

[4] = test system: Pseudomonas aeruginosa (ATCC 9027); conditions: Experimental Example 1; growth inhibited by about 95% or more; about 10^6 CFU/ml; about 32° C., 24 to 48 hours
Protocol: as §1, §2, §3, §4

[5] = test system: Staphylococcus aureus (ATCC 6538); conditions: Experimental Example 1; growth inhibited by about 95% or more; about 10^6 CFU/ml; about 32° C., 24 to 48 hours
Protocol: as §1, §2, §3, §4

CC(O)CO (centres unmarked) [Propylene glycol]
>10 %, w/w: MIC (%, w/w) of sample A. brasiliensis [1] | MIC (%, w/w) of sample C. albicans [2] | MIC (%, w/w) of sample E. coli [3] | MIC (%, w/w) of sample P. aeruginosa [4] | MIC (%, w/w) of sample S. aureus [5]
